Experimental findings from patent US20210015883A1, “A NOVEL SYNERGIC HERBAL FORMULATION FOR THE PREVENTION AND TREATMENT OF PRE-DIABETES, DIABETES AND OTHER INSULIN RESISTANCE CASES” (priority 2018, published 2021) are described below.

Structures are written as SMILES.

The subject of experiment [1] is high fat diet and Streptozotocin (stz) induced insulin resistance in rats. Description: HOMA-IR insulin resistance index in high fat diet + STZ rats. It counts as in vivo, Albino Wistar rats. Conditions: HFD+STZ rats. How it is done: (§1) After 2 weeks of dietary manipulation, the group of rats fed with HFD were injected a single low dose of STZ (40 mg/kg, i.p), while the Normal control rats were given the vehicle citrate buffer (pH 4.4) in a dose volume of 1 mL/kg, i.p. The fasting blood glucose (FBG) were measured 3 days after the STZ injection. […] The rats were allowed to continue to feed on their respective diets until the end of the study. All FBG and insulin levels were determined on different days viz. 18th day (3rd day after STZ injection), 25th, 32nd, 39th and 45th days (24 h after the previous dose) by collecting blood from the tail vein/retro orbital plexus. On the 44th day Oral Glucose Tolerance Test (OGTT) was performed wherein animals of all groups received glucose solution (1.5 g/kg) 30 minutes after the above treatments. Blood glucose and insulin levels were determined at 0, 30, 60, 90, 120 min after glucose administration. Blood glucose levels were measured using a digital glucometer. Insulin was assayed by using a RIA kit.
Insulin resistance is calculated using the following methods: […]
HOMA is a model of the relationship of glucose and insulin dynamics that predicts fasting steady-state glucose and insulin concentrations for a wide range of possible combinations of insulin resistance and β-cell function. Insulin levels depend on the pancreatic β-cell response to glucose concentrations while, glucose concentrations are regulated by insulin-mediated glucose production via the liver. Thus, deficient β-cell function will echo a diminished response of β-cell to glucose-stimulated insulin secretion. Similarly, insulin resistance is reflected by the diminished suppressive effect of insulin on hepatic glucose production. […] HOMA describes this glucose-insulin homeostasis by means of a set of simple, mathematically-derived nonlinear equations. The approximating equation for insulin resistance has been simplified; it uses a fasting blood sample. It is derived from the use of the insulin-glucose product, divided by a constant.
The product of FPG×FPI is an index of hepatic insulin resistance.
I0—Fasting plasma insulin concentration (mIU/L), G0—Fasting plasma glucose concentration (mg/dL),

Experiment [2] has the same test system. The experiment in a line: Matsuda index from OGTT in high fat diet + STZ rats. In kind it is in vivo, Albino Wistar rats. Conditions: Metformin 120 mg/kg p.o., HFD+STZ rats, value less than 4.3 indicates insulin resistance. How it is done: as §1
For experiment [3] the test system is unchanged. Description: Fasting blood glucose levels in high fat diet + STZ rats. In kind it is in vivo, Albino Wistar rats. How it is done: (§2) Evaluation of antidiabetic effect of herbal formulation against high fat diet and Streptozotocin (stz) induced insulin resistance in rats.
(§3) Rats were divided 5 into groups of 8 rats each and treated in the following way:
Group I Normal control group—Received normal chow diet and drinking water daily for 45 days and citrate buffer (1 mL/kg, i.p) on the 15th day of start of experiment.
Group II Toxicant Control: Received HFD throughout the experiment (45 days) and STZ (40 mg/kg, i.p) on the 15th day of start of experiment.
(§4) Group III Herbal formulation I as per Example 4 (500 mg): Received HFD throughout the experiment (45 days), STZ (40 mg/kg, i.p) on the 15th day of start of experiment and the Herbal formulation (500 mg/kg, p.o) from the 18th day for the next 28 days.
(§5) Group IV Herbal formulation II as per Example 4 (1000 mg): Received HFD throughout the experiment (45 days), STZ (40 mg/kg, i.p) on the 15th day of start of experiment and the Herbal formulation (1000 mg/kg, p.o) from the 18th day for the next 28 days.
(§6) Group V Reference standard: Receive HFD throughout the experiment (45 days), STZ (40 mg/kg, i.p) on the 15th day of start of experiment and Metformin, (120 mg/kg) from the 18th day for the next 28 days.
(§7) The rats were allocated into dietary regimens by feeding HFD (58% fat, 25% protein and 17% carbohydrate, as a percentage of total kcal) and drinking water ad libitum, respectively, for the initial period of 2 weeks. After 2 weeks of dietary manipulation, the group of rats fed with HFD were injected a single low dose of STZ (40 mg/kg, i.p), while the Normal control rats were given the vehicle citrate buffer (pH 4.4) in a dose volume of 1 mL/kg, i.p. The fasting blood glucose (FBG) were measured 3 days after the STZ injection. The rats with FBG of more than 250 mg/dL were considered diabetic and selected for further pharmacological studies and their dosing with the Herbal formulations commenced and continued for the next 28 days. The rats were allowed to continue to feed on their respective diets until the end of the study. All FBG and insulin levels were determined on different days viz. 18th day (3rd day after STZ injection), 25th, 32nd, 39th and 45th days (24 h after the previous dose) by collecting blood from the tail vein/retro orbital plexus. On the 44th day Oral Glucose Tolerance Test (OGTT) was performed wherein animals of all groups received glucose solution (1.5 g/kg) 30 minutes after the above treatments. Blood glucose and insulin levels were determined at 0, 30, 60, 90, 120 min after glucose administration. Blood glucose levels were measured using a digital glucometer. Insulin was assayed by using a RIA kit.
(§8) √—Correction of the nonlinear values distribution. • A. Animals used: 40 • B. Species/Common name: Albino Wistar rats • C. Age/weight/size: Ten weeks, 150-180 g • D. Gender: Male • E. Number to be used (Year-wise breakups and total figures needed to be given): 40 • F. Number of days each animal will be housed: 3 months • G. Details of injections schedule: • H. Details of withdrawal: • Volumes: 2 mL per animal by retro-orbital plexus for insulin assay and 0.1 mL by tail vein for blood glucose. • I. Sites: Retro-orbital plexus, tail vein

Experiment [4] shares this test system. The experiment in a line: Oral glucose tolerance test (OGTT) on day 44 in high fat diet + STZ rats. Conditions: Metformin 120 mg/kg p.o., HFD+STZ rats. In kind it is in vivo, Albino Wistar rats. How it is done: as §2, §4, §5, §6, §7, §8
Experiment [5] shares this test system. Description: Insulin levels in high fat diet + STZ rats (RIA). In kind it is in vivo, Albino Wistar rats. Conditions: HFD+STZ rats. How it is done:
as §2, §3, §4, §5, §6, §7, §8

Experiment [6] has the same test system. Description: QUICKI insulin sensitivity index in high fat diet + STZ rats. It counts as in vivo, Albino Wistar rats. Conditions: HFD+STZ rats. Here is the method: as §7
Quantitative insulin sensitivity check index (QUICKI) is an empirically-derived mathematical transformation of fasting blood glucose and plasma insulin concentrations that provide a consistent and precise ISI with a better positive predictive power. It is simply a variation of HOMA equations, as it transforms the data by taking both the logarithm and the reciprocal of the glucose-insulin product, thus slightly skewing the distribution of fasting insulin values. […] It employs the use of fasting values of insulin and glucose as in HOMA calculations. QUICKI is virtually identical to the simple equation form of the HOMA model in all aspects, except that a log transform of the insulin glucose product is employed to calculate QUICKI. The QUICKI can be determined from fasting plasma glucose (mg/dl) and insulin (μIU/ml) concentrations.
QUICKI values range between 0.45 in healthy individuals (noted as unusually healthy in the original study) and 0.30 in diabetics. Lower values reflect greater resistance with values below 0.339 indicating insulin resistance.

The subject of experiment [7] is PPAR gamma. Description: PPAR gamma gene expression by Real Time PCR in differentiated 3T3L1 adipocytes. In kind it is cell-based. The following applies: SC = Pioglitazone 6 μg/ml, 12th day, control = 1.
Protocol: Samples of Herbal formulation were evaluated over a concentration range from 0.5 to 10 μg/ml. Pioglitazone, a known anti-diabetic agent was used as the standard control at a dose of 6 μg/ml; a dose extrapolated from the median therapeutic human dose. The Herbal formulation was dissolved in NAOH (0.1N).
Viability studies were carried out to eliminate cytotoxic concentrations of the samples using MTT assay. Based on the results of the MTT assay, the following concentrations were used for the PPAR Expression studies. Concentration selected was as follows 2.5, 5, 10 μg/ml.
3T3L1 Fibroblasts were grown in DMEM medium, supplemented with 10% FBS, in a humidified atmosphere of 5% CO2 at 370 C. […]
On the 12th day after differentiation, total RNA was extracted with TRIzol reagent according to the manufacturer's instructions from the differentiated adipocytes. The concentration and purity of RNA were determined by measuring the absorbance at 260 nm (A260) and the ratio of the absorbance at 260 nm to the absorbance at 280 nm (A260/A280), respectively. […] SYBR Green chemistry was used to perform the quantitative determination of the relative expression of PPAR gene. The PPAR gene was analyzed using the Rotogene Q; Qiagen real-time polymerase chain reaction machine. […]
Where [8] appears, read: Metformin 120 mg/kg p.o. group, Day 18 (start of treatment).
Where [9] appears, read: Metformin 120 mg/kg p.o., Day 25.
Where [10] appears, read: Metformin 120 mg/kg p.o., Day 32.
Setting [11] is: Metformin 120 mg/kg p.o., Day 39.
Setting [12] is: Metformin 120 mg/kg p.o., Day 45.

Regarding `CN(C)C(=N)N=C(N)N` [Metformin], the HOMA-IR in experiment [1] (setting [8]) is recorded as 31.7 ± 4.75; in experiment [1] (setting [9]), 9.91 ± 0.69; in experiment [1] (setting [10]), 15.8 ± 2.76; in experiment [1] (setting [11]), 10.56 ± 1.7; in experiment [1] (setting [12]), 5.81 ± 0.39. In addition, the “Matsuda Index” value in experiment [2] came to 12.56. Further, in experiment [3] (HFD+STZ rats), the “course of BGL over 4 weeks of treatment (in words)” value is recorded as “gradual decrease in BGL”. The Blood glucose level in experiment [3] (Metformin 120 mg/kg p.o. group, HFD+STZ rats, Day 1 (before treatment, dosing from day 18)) is given as 126.87 ± 2.41 mg/dL; in experiment [3] (Metformin 120 mg/kg p.o. group, HFD+STZ rats, Day 7 (before treatment)), 138.63 ± 1.54 mg/dL; in experiment [3] (Metformin 120 mg/kg p.o. group, HFD+STZ rats, Day 15 (before treatment)), 156.37 ± 3.17 mg/dL; in experiment [3] (Metformin 120 mg/kg p.o. group, HFD+STZ rats, Day 18 (3rd day after STZ, start of treatment)), 396.67 ± 43.72 mg/dL; in experiment [3] (Metformin 120 mg/kg p.o., HFD+STZ rats, Day 25), 183.167 ± 13.58 mg/dL; in experiment [3] (Metformin 120 mg/kg p.o., HFD+STZ rats, Day 32) it was 245.167 ± 28.86 mg/dL. The Blood glucose level in experiment [3] (Metformin 120 mg/kg p.o., HFD+STZ rats, Day 39) is listed as 191.83 ± 25.08 mg/dL; in experiment [3] (Metformin 120 mg/kg p.o., HFD+STZ rats, Day 45) it was 152.83 ± 8.40 mg/dL. In addition, in experiment [3] (treatment groups), the “BGL at the end of the study compared with the HFD+STZ group (in words)” value is “significantly lower”. In addition, the “OGTT Glucose” value is 129.5 ± 1.17 mg/dL in experiment [4] (0 Min after glucose 1.5 g/kg), 249.50 ± 0.56 mg/dL in experiment [4] (30 Min after glucose 1.5 g/kg), 185.167 ± 2.08 mg/dL in experiment [4] (90 Min after glucose 1.5 g/kg) and 149.83 ± 2.81 mg/dL in experiment [4] (120 Min after glucose 1.5 g/kg). Besides, the “OGTT Insulin” value in experiment [4] (0 Min after glucose 1.5 g/kg) amounted to 13.12 ± 0.97 mIU/L; in experiment [4] (30 Min after glucose 1.5 g/kg), 27.308 ± 1.4 mIU/L; in experiment [4] (90 Min after glucose 1.5 g/kg), 22.72 ± 1.49 mIU/L; in experiment [4] (120 Min after glucose 1.5 g/kg) it was 14.95 ± 1.035 mIU/L. The Insulin level in experiment [5] (Metformin 120 mg/kg p.o. group, date printed as "—" (first reading)) is on record as 31.56 ± 1.95 mIU/L; in experiment [5] (setting [9]), 22.56 ± 2.24 mIU/L; in experiment [5] (setting [10]), 27.84 ± 5.014 mIU/L; in experiment [5] (setting [11]), 23.40 ± 3.47 mIU/L; in experiment [5] (setting [12]), 15.36 ± 0.58 mIU/L. The QUICKI in experiment [6] (setting [8]) is reported as 0.24 ± 0.0057; in experiment [6] (setting [9]) it was 0.276 ± 0.0021; in experiment [6] (setting [10]) it was 0.26 ± 0.0042; in experiment [6] (setting [11]), 0.27 ± 0.0055; in experiment [6] (setting [12]), 0.29 ± 0.0030.

Regarding `CCc1ccc(CCOc2ccc(CC3SC(=O)NC3=O)cc2)nc1` (centres unmarked) [Pioglitazone], the “2^-DDCT (relative PPAR gamma mRNA expression)” value in experiment [7] is reported as 2.292.
